Reference: patent publication US12534496B2, “Polymorphic forms of Cyclo (-His-Pro) and methods of use to treat kidney disease” (NovMetaPharma Co., Ltd., priority 2018, dated 2026)
Like-named read-outs stand apart in the source and are kept apart here.

Key:
Assay type in all cases: physicochemical
[1] = Solubility of CHP hydrate (Pattern 2) in EtOH/water/MtBE; settings: organic solvent or mixture
[2] = pH solubility assessment in buffers at 37 °C; settings: for μL for Dissolution at 37° C.: 100 mg solid
Procedure: CHP patterns 1 and 2 were prepared for pH solubility assessment as follows: • 100 mg of CHP pattern 1 and pattern 2 were each weighed out into 4, 5 mL screw top glass vials; • 100 μL of a selected buffer, pre-heated to 37° C., was added to each vial; • Samples were heated to 37° C. in an incubator shaker for ca. 10 minutes after each volume of buffer and checked for sample dissolution.

[3] = Solution state chemical stability in water/acetone and EtOH/water/MtBE (HPLC purity); settings: water/acetone and EtOH/H2O/MtBE, 50 °C for 20 h
Procedure: Solution state chemical stability of the compound was studied in different solvent systems at different temperatures (Table 4). The solution was held at 50° C. and 80° C., and purity of the solution was tracked. The compound was generally stable for at least 20 hours.

[4] = 8-week stability assessment at 40 °C/75% RH (XRPD, appearance, chiral HPLC); settings: for Chiral Purity: chiral HPLC
Procedure: XRPD analysis was carried out on a PANalytical X'pert pro, scanning the samples between 3 and 35° 2θ. The material was gently ground to release any agglomerates and loaded onto a multi-well plate with Kapton or Mylar polymer film to support the sample. The multi-well plate was then placed into the diffractometer and analyzed using Cu K radiation (α1λ=1.54060 Å; α2=1.54443 Å; β=1.39225 Å; α1: α2 ratio=0.5) running in transmission mode (step size 0.0130° 2θ) using 40 kV/40 mA generator settings.
13. Chiral HPLC Column: Daicel IC (5.0 um, 250*4.6 mm) Column Temperature: 30° C. Injection Volume: 5 μL Flow Rate: 1.0 mL/min Mobile Phase A: 0.01% DEA in n-Hexane Mobile Phase B: EtOH:MeOH=2:8 (v/v) Diluent: Acetonitrile PDA Range: 220 nm Gradient program: […]

[5] = Drug substance stability study, 40±2 °C/75±5% RH (appearance, assay, impurities, chiral, water content, XRPD); settings: for XRPD: reference standard of Pattern 2
Procedure: Packaging: Sample at each individual time point was packaged into double Antistatic LDPE bags both secured with cable ties. The sample packed for the same storage condition were stored together within a fiber drum, and closed with metal lid. All packages were prepared in the same fashion and labeled.
Time zero will be the day samples are placed on station. Initial testing results were from the release testing as long as samples are put on station within 30 days of the release test date, otherwise, initial was repeated.
Study Requirements: Total 22.5 g sample (Total 21 g sample if initial test is not needed): • 1.5 g for initial test if needed; • 21 g sample will be divided into 14 parts, 1.5 g for each parts, sample for each part should be weighed into double Antistatic LDPE bags both secured with cable ties. The stability samples for each storage condition are stored together within a fiber drum, closed with metal lid, and then stored at 25±2° C./60+5% RH (9 bags) and 40±2° C./75±5% RH (5 bags), respectively. Sampling Time:
Samples stored not more than 6 months were pulled on schedule date or within 2 business days after the scheduled date. Samples stored more than 6 months were pulled within +2 business days of the scheduled date.
Stability samples stored for one month to one year, and greater than one year were analyzed and completed within 10 and 20 business days after the samples pulled out from stability chamber, respectively. If time zero testing was performed, it was analyzed within 10 business days after study initiation.

solubility ([1]; (EtOH/water = 9/1)/MtBE 3/0 (v/v), 5 °C): 121 mg/mL | solubility ([1]; (EtOH/water = 9/1)/MtBE 3/0 (v/v), 50 °C): > 200 mg/mL | solubility ([1]; (EtOH/water = 9/1)/MtBE 3/1 (v/v), 5 °C): 59 mg/mL | solubility ([1]; (EtOH/water = 9/1)/MtBE 3/1 (v/v), 50 °C): > 200 mg/mL | solubility ([1]; (EtOH/water = 9/1)/MtBE 3/3 (v/v), 5 °C): 30 mg/mL | solubility ([1]; (EtOH/water = 9/1)/MtBE 3/3 (v/v), 50 °C): 101 mg/mL | solubility ([1]; (EtOH/water = 9/1)/MtBE 3/6 (v/v), 5 °C): 6 mg/mL | solubility ([1]; (EtOH/water = 9/1)/MtBE 3/6 (v/v), 50 °C): 24 mg/mL | solubility ([1]; (EtOH/water = 9/1)/MtBE 3/9 (v/v), 5 °C): 6 mg/mL | solubility ([1]; (EtOH/water = 9/1)/MtBE 3/9 (v/v), 50 °C): 17 mg/mL | μL for Dissolution at 37° C. ([2]; buffer pH 1): 300 µL | μL for Dissolution at 37° C. ([2]; buffer pH 4): 300 µL | μL for Dissolution at 37° C. ([2]; buffer pH 6.8): 300 µL | μL for Dissolution at 37° C. ([2]; buffer pH 7.2): 300 µL | solubility at 10 min ([2]; aqueous buffer, thermodynamic from solid, buffer pH 7.2, 37 °C, read-out: Approximate Solubility): 333 to 500 mg/mL | solubility at 10 min ([2]; buffer pH 1, 37 °C, pH 1, thermodynamic from solid, read-out: Approximate Solubility): 333 to 500 mg/mL | solubility at 10 min ([2]; buffer pH 4, 37 °C, pH 4, aqueous buffer, thermodynamic from solid, read-out: Approximate Solubility): 333 to 500 mg/mL | solubility at 10 min ([2]; buffer pH 6.8, 37 °C, pH 6.8, aqueous buffer, thermodynamic from solid, read-out: Approximate Solubility): 333 to 500 mg/mL | solubility at 10 min ([2]; buffer, aqueous buffer, thermodynamic from solid, all pH values tested (pH 1, 4, 6.8 and 7.2), 37 °C, read-out: Solubility (estimated)): 333 to 500 mg/mL | Chemical stability under both crystallization conditions [3]: stable | Appearance ([4]; 2-week): White | Appearance ([4]; 4-week): White | XRPD form after storage ([4]; 4 weeks, listed as CHP pattern 2): no change in form | Appearance ([4]; 8-week): White | XRPD form after storage ([4]; 8 weeks): no change in form | XRPD form after storage ([4]; 8 weeks, listed as CHP pattern 2): no change in form | XRPD form after storage ([4]; 8 weeks, listed as pattern 2 CHP): pattern 2 prevailed | Appearance ([4]; Initial): White | Chiral Purity ([4]; 2-week): >99.9% | Chiral Purity ([4]; 4-week): 99.9% | Chiral Purity ([4]; Initial): 99.9% | XRPD form after storage ([4]; two weeks (14 days), listed as CHP pattern 2): no change in form | Appearance ([5]; 40 ± 2° C./75 ± 5% RH, 1M): Off-white | Assay by HPLC ([5]; 40 ± 2° C./75 ± 5% RH, 1M): 103.2% | Chiral, HPLC: chiral impurity (D, D) optical isomer ([5]; 40 ± 2° C./75 ± 5% RH, 1M): (D, D):N, D | Chiral, HPLC: chiral impurity (D, L) optical isomer ([5]; 40 ± 2° C./75 ± 5% RH, 1M): (D, L):N, D | Chiral, HPLC: chiral impurity (L, D) optical isomer ([5]; 40 ± 2° C./75 ± 5% RH, 1M): (L, D):N, D | Chiral, HPLC: chiral purity ([5]; 40 ± 2° C./75 ± 5% RH, 1M): 100.0% | Impurities, HPLC: H-His-OH ([5]; 40 ± 2° C./75 ± 5% RH, 1M): 0.08% | Impurities, HPLC: each other individual impurity ([5]; 40 ± 2° C./75 ± 5% RH, 1M): individual < 0.05% | Water content (KF) ([5]; 40 ± 2° C./75 ± 5% RH, 1M): 7.2% | Appearance ([5]; 40 ± 2° C./75 ± 5% RH, 3M): Off-white | Assay by HPLC ([5]; 40 ± 2° C./75 ± 5% RH, 3M): 103.3% | Chiral, HPLC: chiral impurity (D, D) optical isomer ([5]; 40 ± 2° C./75 ± 5% RH, 3M): (D, D):N, D | Chiral, HPLC: chiral impurity (D, L) optical isomer ([5]; 40 ± 2° C./75 ± 5% RH, 3M): (D, L):N, D | Chiral, HPLC: chiral impurity (L, D) optical isomer ([5]; 40 ± 2° C./75 ± 5% RH, 3M): (L, D):N, D | Chiral, HPLC: chiral purity ([5]; 40 ± 2° C./75 ± 5% RH, 3M): 100.0% | Impurities, HPLC: H-His-OH ([5]; 40 ± 2° C./75 ± 5% RH, 3M): 0.07% | Impurities, HPLC: each other individual impurity ([5]; 40 ± 2° C./75 ± 5% RH, 3M): individual < 0.05% | Water content (KF) ([5]; 40 ± 2° C./75 ± 5% RH, 3M): 7.2% | Appearance ([5]; 40 ± 2° C./75 ± 5% RH, 6M): Off-white | Assay by HPLC ([5]; 40 ± 2° C./75 ± 5% RH, 6M): 102.4% | Chiral, HPLC: chiral impurity (D, D) optical isomer ([5]; 40 ± 2° C./75 ± 5% RH, 6M): (D, D):N, D | Chiral, HPLC: chiral impurity (D, L) optical isomer ([5]; 40 ± 2° C./75 ± 5% RH, 6M): (D, L):N, D | Chiral, HPLC: chiral impurity (L, D) optical isomer ([5]; 40 ± 2° C./75 ± 5% RH, 6M): (L, D):0.5% | Chiral, HPLC: chiral purity ([5]; 40 ± 2° C./75 ± 5% RH, 6M): 99.9% | Impurities, HPLC: C16081735-D-isomer ([5]; 40 ± 2° C./75 ± 5% RH, 6M): isomer: 0.05% | Impurities, HPLC: H-His-OH ([5]; 40 ± 2° C./75 ± 5% RH, 6M): 0.06% | Water content (KF) ([5]; 40 ± 2° C./75 ± 5% RH, 6M): 7.2% | XRPD ([5]; 40 ± 2° C./75 ± 5% RH, 6M): Conform to reference | Appearance ([5]; Initial (time zero)): Off-white | Assay by HPLC ([5]; Initial (time zero)): 103.4% | Chiral, HPLC: chiral impurity (D, D) optical isomer ([5]; Initial (time zero)): (D, D):N, D | Chiral, HPLC: chiral impurity (D, L) optical isomer ([5]; Initial (time zero)): (D, L):N, D | Chiral, HPLC: chiral impurity (L, D) optical isomer ([5]; Initial (time zero)): (L, D):N, D | Chiral, HPLC: chiral purity ([5]; Initial (time zero)): 100.0% | Impurities, HPLC: H-His-OH ([5]; Initial (time zero)): 0.07% | Impurities, HPLC: each other individual impurity ([5]; Initial (time zero)): individual < 0.03% | Water content (KF) ([5]; Initial (time zero)): 7.4% | XRPD ([5]; Initial (time zero)): Conform to reference
Compound: O=C1N[C@@H](Cc2cnc[nH]2)C(=O)N2CCC[C@@H]12 [Pattern 2, Pyrrolo [1,2-a]pyrazine-1,4-dione, hexahydro-3-(1H-imidazol-5-ylmethyl)-, hydrate (1:1), (3S, 8aS)-]
